{"source": "the supplement of paper PMC9013687", "key": {"Danio rerio embryo [1]": {"test_system": "Danio rerio embryo", "procedure": "(§1)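 Zebrafish embryos (UFZ-OBI strain) were exposed from 2 hpf for 48 h (2 dpf) or 96 h (4 dpf) at 28 °C; spontaneous tail coiling was scored at 25 hpf. Morphological features from automated image analysis (FishInspector), heart rate and locomotor response were fitted with drc models. Quantal endpoints were dichotomised at 2.5 SD from controls and fitted with a log-logistic model; heart rate, pigmentation and STC were normalised to the replicate control mean. Betamethasone was tested as betamethasone dipropionate, diflorasone as diflorasone diacetate.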"}, "Danio rerio embryo [2]": {"test_system": "Danio rerio embryo", "conditions": "exposure time: 4 dpf", "procedure": "as §1"}, "Danio rerio embryo [3]": {"test_system": "Danio rerio embryo", "assay": "EC50 Curvature_Increase", "procedure": "as §1"}, "Danio rerio embryo [4]": {"test_system": "Danio rerio embryo", "assay": "EC50 Body length_Decrease", "procedure": "as §1"}, "Danio rerio embryo [5]": {"test_system": "Danio rerio embryo", "assay": "EC50 Bladder size_Decrease", "conditions": "exposure time: 4 dpf", "procedure": "as §1"}, "Danio rerio embryo [6]": {"test_system": "Danio rerio embryo", "assay": "EC50 Pericard size_Increase", "conditions": "exposure time: 4 dpf", "procedure": "as §1"}, "Danio rerio embryo [7]": {"test_system": "Danio rerio embryo", "assay": "EC50 Yolk sac size_Increase", "conditions": "exposure time: 4 dpf", "procedure": "as §1"}, "Danio rerio embryo [8]": {"test_system": "Danio rerio embryo", "assay": "EC50 Eye-jaw distance_Decrease", "conditions": "exposure time: 4 dpf", "procedure": "as §1"}, "Danio rerio embryo [9]": {"test_system": "Danio rerio embryo", "assay": "EC50 Otolith-eye distance_Decrease", "conditions": "exposure time: 4 dpf", "procedure": "as §1"}, "Danio rerio embryo [10]": {"test_system": "Danio rerio embryo", "assay": "EC10 LMR dark; higher = less potent", "conditions": "exposure time: 4 dpf", "procedure": "as §1"}, "Danio rerio embryo [11]": {"test_system": "Danio rerio embryo", "assay": "EC20 LMR dark; higher = less potent", "conditions": "exposure time: 4 dpf", "procedure": "as §1"}, "Danio rerio embryo [12]": {"test_system": "Danio rerio embryo", "assay": "EC20 Any effect; higher = less potent", "procedure": "as §1"}, "Danio rerio embryo [13]": {"test_system": "Danio rerio embryo", "assay": "EC10 Any effect; higher = less potent", "procedure": "as §1"}, "Danio rerio embryo [14]": {"test_system": "Danio rerio embryo", "assay": "EC20 Eye size_Decrease; higher = less potent", "procedure": "as §1"}, "Danio rerio embryo [15]": {"test_system": "Danio rerio embryo", "assay": "EC10 Curvature_Increase; higher = less potent", "procedure": "as §1"}, "Danio rerio embryo [16]": {"test_system": "Danio rerio embryo", "assay": "EC20 Curvature_Increase; higher = less potent", "procedure": "as §1"}, "Danio rerio embryo [17]": {"test_system": "Danio rerio embryo", "assay": "EC10 Head size_Decrease; higher = less potent", "conditions": "exposure time: 2 dpf", "procedure": "as §1"}, "Danio rerio embryo [18]": {"test_system": "Danio rerio embryo", "assay": "EC20 Body length_Decrease; higher = less potent", "procedure": "as §1"}, "Danio rerio embryo [19]": {"test_system": "Danio rerio embryo", "assay": "EC10 Body length_Decrease; higher = less potent", "procedure": "as §1"}, "Danio rerio embryo [20]": {"test_system": "Danio rerio embryo", "assay": "EC10 Bladder size_Decrease; higher = less potent", "conditions": "exposure time: 4 dpf", "procedure": "as §1"}, "Danio rerio embryo [21]": {"test_system": "Danio rerio embryo", "assay": "EC20 Bladder size_Decrease; higher = less potent", "conditions": "exposure time: 4 dpf", "procedure": "as §1"}, "Danio rerio embryo [22]": {"test_system": "Danio rerio embryo", "assay": "EC20 Yolk sac size_Increase; higher = less potent", "conditions": "exposure time: 4 dpf", "procedure": "as §1"}, "Danio rerio embryo [23]": {"test_system": "Danio rerio embryo", "assay": "EC20 Pericard size_Increase; higher = less potent", "conditions": "exposure time: 4 dpf", "procedure": "as §1"}, "Danio rerio embryo [24]": {"test_system": "Danio rerio embryo", "assay": "EC10 Yolk sac size_Increase; higher = less potent", "conditions": "exposure time: 4 dpf", "procedure": "as §1"}, "Danio rerio embryo [25]": {"test_system": "Danio rerio embryo", "assay": "EC10 Pericard size_Increase; higher = less potent", "conditions": "exposure time: 4 dpf", "procedure": "as §1"}, "Danio rerio embryo [26]": {"test_system": "Danio rerio embryo", "assay": "EC20 Eye-jaw distance_Decrease; higher = less potent", "conditions": "exposure time: 4 dpf", "procedure": "as §1"}, "Danio rerio embryo [27]": {"test_system": "Danio rerio embryo", "assay": "EC10 Eye-jaw distance_Decrease; higher = less potent", "conditions": "exposure time: 4 dpf", "procedure": "as §1"}, "Danio rerio embryo [28]": {"test_system": "Danio rerio embryo", "assay": "EC20 Otolith-eye distance_Decrease; higher = less potent", "conditions": "exposure time: 4 dpf", "procedure": "as §1"}, "Danio rerio embryo [29]": {"test_system": "Danio rerio embryo", "assay": "EC10 Otolith-eye distance_Decrease; higher = less potent", "conditions": "exposure time: 4 dpf", "procedure": "as §1"}, "Danio rerio embryo [30]": {"test_system": "Danio rerio embryo", "assay": "spontaneous tail coiling frequency (coils/min/embryo); higher = more spontaneous movement", "conditions": "25 hpf", "procedure": "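Spontaneous tail coilings of zebrafish embryos exposed from 2 hpf were recorded at 24-25 hpf in 1-min videos and detected by a KNIME workflow from grey-value variance. Betamethasone was tested as the dipropionate, diflorasone as the diacetate.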"}}}
{"smiles": "C[Si](Cn1cncn1)(c1ccc(F)cc1)c1ccc(F)cc1", "note": "[Flusilazole]", "values": [{"measurement": "EC50 Any effect", "setting": "Danio rerio embryo [1]; exposure time: 2 dpf", "value": 7.6, "unit": "µM"}, {"measurement": "EC50 Any effect", "setting": "Danio rerio embryo [1]; exposure time: 4 dpf", "value": 2.65, "unit": "µM"}, {"measurement": "EC50 STC decrease", "setting": "Danio rerio embryo [1]; exposure time: 25 h", "value": 8.34, "unit": "µM"}, {"measurement": "EC50 LMR dark", "setting": "Danio rerio embryo [2]", "value": 2.77, "unit": "µM"}, {"measurement": "EC50 Curvature Increase", "setting": "Danio rerio embryo [3]; exposure time: 2 dpf", "value": 9.58, "unit": "µM"}, {"measurement": "EC50 Curvature Increase", "setting": "Danio rerio embryo [3]; exposure time: 4 dpf", "value": 5.85, "unit": "µM"}, {"measurement": "EC50 Body length Decrease", "setting": "Danio rerio embryo [4]; exposure time: 2 dpf", "value": 10.3, "unit": "µM"}, {"measurement": "EC50 Body length Decrease", "setting": "Danio rerio embryo [4]; exposure time: 4 dpf", "value": 3.04, "unit": "µM"}, {"measurement": "EC50 Bladder size Decrease", "setting": "Danio rerio embryo [5]", "value": 2.14, "unit": "µM"}, {"measurement": "EC50 Pericard size Increase", "setting": "Danio rerio embryo [6]", "value": 6.51, "unit": "µM"}, {"measurement": "EC50 Yolk sac size Increase", "setting": "Danio rerio embryo [7]", "value": 10.1, "unit": "µM"}, {"measurement": "EC50 Eye-jaw distance Decrease", "setting": "Danio rerio embryo [8]", "value": 3.73, "unit": "µM"}, {"measurement": "EC50 Otolith-eye distance Decrease", "setting": "Danio rerio embryo [9]", "value": 5.51, "unit": "µM"}, {"measurement": "EC10 LMR dark", "setting": "Danio rerio embryo [10]", "value": 1.3, "unit": "µM"}, {"measurement": "EC20 LMR dark", "setting": "Danio rerio embryo [11]", "value": 1.72, "unit": "µM"}, {"measurement": "EC20 Any effect", "setting": "Danio rerio embryo [12]; exposure time: 2 dpf", "value": 6.04, "unit": "µM"}, {"measurement": "EC20 Any effect", "setting": "Danio rerio embryo [12]; exposure time: 4 dpf", "value": 1.92, "unit": "µM"}, {"measurement": "EC10 Any effect", "setting": "Danio rerio embryo [13]; exposure time: 2 dpf", "value": 5.28, "unit": "µM"}, {"measurement": "EC10 Any effect", "setting": "Danio rerio embryo [13]; exposure time: 4 dpf", "value": 1.6, "unit": "µM"}, {"measurement": "EC20 Eye size Decrease", "setting": "Danio rerio embryo [14]; exposure time: 2 dpf", "value": 21.8, "unit": "µM"}, {"measurement": "EC20 Eye size Decrease", "setting": "Danio rerio embryo [14]; exposure time: 4 dpf", "value": 4.86, "unit": "µM"}, {"measurement": "EC10 Curvature Increase", "setting": "Danio rerio embryo [15]; exposure time: 2 dpf", "value": 6.73, "unit": "µM"}, {"measurement": "EC10 Curvature Increase", "setting": "Danio rerio embryo [15]; exposure time: 4 dpf", "value": 2.07, "unit": "µM"}, {"measurement": "EC20 Curvature Increase", "setting": "Danio rerio embryo [16]; exposure time: 2 dpf", "value": 7.67, "unit": "µM"}, {"measurement": "EC20 Curvature Increase", "setting": "Danio rerio embryo [16]; exposure time: 4 dpf", "value": 3.03, "unit": "µM"}, {"measurement": "EC10 Head size Decrease", "setting": "Danio rerio embryo [17]", "value": 28.1, "unit": "µM"}, {"measurement": "EC20 Body length Decrease", "setting": "Danio rerio embryo [18]; exposure time: 2 dpf", "value": 8.01, "unit": "µM"}, {"measurement": "EC20 Body length Decrease", "setting": "Danio rerio embryo [18]; exposure time: 4 dpf", "value": 2.55, "unit": "µM"}, {"measurement": "EC10 Body length Decrease", "setting": "Danio rerio embryo [19]; exposure time: 2 dpf", "value": 6.91, "unit": "µM"}, {"measurement": "EC10 Body length Decrease", "setting": "Danio rerio embryo [19]; exposure time: 4 dpf", "value": 2.31, "unit": "µM"}, {"measurement": "EC10 Bladder size Decrease", "setting": "Danio rerio embryo [20]", "value": 1.46, "unit": "µM"}, {"measurement": "EC20 Bladder size Decrease", "setting": "Danio rerio embryo [21]", "value": 1.69, "unit": "µM"}, {"measurement": "EC20 Yolk sac size Increase", "setting": "Danio rerio embryo [22]", "value": 5.53, "unit": "µM"}, {"measurement": "EC20 Pericard size Increase", "setting": "Danio rerio embryo [23]", "value": 5.53, "unit": "µM"}, {"measurement": "EC10 Yolk sac size Increase", "setting": "Danio rerio embryo [24]", "value": 3.89, "unit": "µM"}, {"measurement": "EC10 Pericard size Increase", "setting": "Danio rerio embryo [25]", "value": 5.02, "unit": "µM"}, {"measurement": "EC20 Eye-jaw distance Decrease", "setting": "Danio rerio embryo [26]", "value": 2.67, "unit": "µM"}, {"measurement": "EC10 Eye-jaw distance Decrease", "setting": "Danio rerio embryo [27]", "value": 2.2, "unit": "µM"}, {"measurement": "EC20 Otolith-eye distance Decrease", "setting": "Danio rerio embryo [28]", "value": 4.25, "unit": "µM"}, {"measurement": "EC10 Otolith-eye distance Decrease", "setting": "Danio rerio embryo [29]", "value": 3.65, "unit": "µM"}, {"measurement": "spontaneous tail coiling frequency", "setting": "Danio rerio embryo [30]; 1.98167 µM", "value": 2.65}, {"measurement": "spontaneous tail coiling frequency", "setting": "Danio rerio embryo [30]; 3.96335 µM", "value": 1.93}, {"measurement": "spontaneous tail coiling frequency", "setting": "Danio rerio embryo [30]; 6.3 µM", "value": 1.95}, {"measurement": "spontaneous tail coiling frequency", "setting": "Danio rerio embryo [30]; 7.92669 µM", "value": 1.22}, {"measurement": "spontaneous tail coiling frequency", "setting": "Danio rerio embryo [30]; 9.4 µM", "value": 1.84}, {"measurement": "spontaneous tail coiling frequency", "setting": "Danio rerio embryo [30]; 14.1 µM", "value": 1.52}, {"measurement": "spontaneous tail coiling frequency", "setting": "Danio rerio embryo [30]; 15.8534 µM", "value": 0}, {"measurement": "spontaneous tail coiling frequency", "setting": "Danio rerio embryo [30]; 21.1 µM", "value": 0}, {"measurement": "spontaneous tail coiling frequency", "setting": "Danio rerio embryo [30]; 31.7 µM", "value": 0}, {"measurement": "spontaneous tail coiling frequency", "setting": "Danio rerio embryo [30]; 31.7068 µM", "value": 0}, {"measurement": "spontaneous tail coiling frequency", "setting": "Danio rerio embryo [30]; 47.6 µM", "value": 0}]}
